Values quoted from earlier work in patent US20240299301A1, “LIPID NANOPARTICLES AND METHOD FOR PREPARING SAME” (THERNA THERAPEUTICS, priority 2021, published 2024).

- pKa of the amine group: about 6.5
SMILES: CCCCC/C=C\C/C=C\CCCCCCCCC(CCCCCCCC/C=C\C/C=C\CCCCC)OC(=O)CCCN(C)C [DLin-MC3-DMA, (6Z, 9Z, 28Z, 31Z)-heptatriaconta 6,9,28,31-tetraen-19-yl 4-(dimethylamino)butanoate]
